Values joined by “and” are separate entries in the source; they are usually repeats but may differ in a detail not shown here. Equal values may be shown once. Read-outs that look alike come from different tables or passages of the source.
Tests used:
UTS2R T304A = experiment: TGFα-shedding assay on UTS2R mutant T304A; format: cell-based, human; details: cutoff value set to −1, single replicates
hiPS-CMs = experiment: Perforated patch-clamp, spontaneous action potentials (APD90) of hiPS-CMs; format: cell-based, human; details: 10 µM remdesivir, 72 h
[1] = target: T1, UTS2R (β-arrestin 1 recruitment) (Homo sapiens, UniProt Q9UKP6); experiment: NanoBiT β-arrestin 1 recruitment assay for UTS2R; format: cell-based; details: β-arrestin 1, Fig. 1c
T1 construct: expressed in transfected cells; host or cells: HEK293A
T1 sequence (Q9UKP6 whole entry): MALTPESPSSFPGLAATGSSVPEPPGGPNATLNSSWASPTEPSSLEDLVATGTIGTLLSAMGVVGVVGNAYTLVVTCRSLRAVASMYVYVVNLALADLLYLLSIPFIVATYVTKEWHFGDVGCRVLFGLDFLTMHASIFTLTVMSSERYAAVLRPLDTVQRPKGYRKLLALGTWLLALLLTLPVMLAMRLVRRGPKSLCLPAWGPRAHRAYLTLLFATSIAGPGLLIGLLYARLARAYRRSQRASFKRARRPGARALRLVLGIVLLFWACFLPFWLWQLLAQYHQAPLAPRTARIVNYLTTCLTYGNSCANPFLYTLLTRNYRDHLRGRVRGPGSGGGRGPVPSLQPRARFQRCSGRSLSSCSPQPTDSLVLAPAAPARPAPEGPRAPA

[2] = test system: adult mouse cardiomyocytes; experiment: Contractility under pacing of adult mouse cardiomyocytes; format: cell-based; details: 10 µM remdesivir, 30 min
Protocol: C57BL/6J mice for the isolation of adult mouse cardiomyocytes were purchased from Japan SLC Inc. (Shizuoka, Japan). Isolation of adult mouse ventricular cardiomyocytes was performed. Male mice were anesthetized by inhalation with isoflurane. The heart was quickly excised, and the aorta was clamped with a small vascular clamp. The heart was antegradely perfused with isolation buffer (less than 3 mL) containing 130 mM NaCl, 5.4 mM KCl, 0.5 mM MgCl2, 0.33 mM NaH2PO4, 25 mM HEPES, 22 mM glucose, and 50 μU/mL bovine insulin (Sigma) (pH 7.4, adjusted with NaOH) supplemented with 0.4 mM EGTA, followed by the perfusion of enzyme solution (10 mL) (isolation buffer containing 1 mg/mL collagenase type 2 (Worthington), 0.06 mg/mL trypsin (Sigma), 0.06 mg/mL protease (Sigma), and 0.3 mM CaCl2). Thereafter, the LV chamber was removed and cut into small pieces in an enzyme solution containing 0.2% bovine serum albumin (BSA) and 0.7 mM CaCl2. The tissue-cell suspension was filtered through a cell strainer (100 μm, Falcon) and centrifuged for 3 min at 50×g. After removing the supernatant, the cell pellet was resuspended in isolation buffer supplemented with 0.2% BSA and 1.2 mM CaCl2 and incubated for 7 min at 37 °C. […]
Microscopic images of cardiomyocytes were recorded for 13 seconds under pacing conditions. […] Imaging data were analyzed using Fiji software.

[3] = test system: human induced pluripotent stem cell-derived cardiomyocytes (hiPSC-CMs); experiment: Field potential recording (MEA) in hiPSC-CMs; format: cell-based; details: for prolonged FPD: 1 µM remdesivir; for FPD delay: remdesivir with UTS2R antagonist (urantide)
Protocol: Human induced pluripotent stem cell-derived cardiomyocytes (hiPSC-CMs) were purchased from Fujifilm Cellular Dynamics, Inc. (CDI; iCell cardiomyocytes 2.0). To prepare the probe (MED-PG515A, Alpha MED Sciences), the recording areas were coated with fibronectin and dissolved in Dulbecco’s phosphate-buffered saline to create a 50 µg/mL solution. The recording area was covered with 1–2 µL fibronectin solution, and the probes were incubated at 37 °C for at least 1 h. Cells were thawed and suspended in iCell Cardiomyocytes Plating Medium (CDI) and plated onto the probes at a density of 3.5×10^4 cells in a 2 µL plating medium. The cells were incubated at 37 °C in 5% CO2 for 3–4 h before filling each probe with 1 mL iCell cardiomyocytes maintenance medium (CDI), which was used as the culture medium. The medium was changed every 2–3 days, with the cells cultured in the probes for 5–14 days to obtain a sheet of cardiomyocytes with spontaneous and synchronous electrical activity.
FP recording was carried out[35],[60]. Before measuring FPs, iCell cardiomyocyte sheets were equilibrated for at least 4 h in a fresh culture medium using a 5% CO2 incubator at 37 °C. After equilibration, the probes were transferred to the multi-electrode array (MEA) system (MED64, Alpha med Scientific) and incubated in a humidified 5% CO2 atmosphere. The stability and constancy of the waveforms were confirmed by monitoring the signals for at least 30 min. Once the FPs reached a stable state, they were recorded for 10 min at the baseline and then 24, 48, and 72 h after drug treatment. The stock solutions of drugs were prepared in dimethyl sulfoxide (DMSO) or distilled water at a 1000-fold target concentration. The stock solution was diluted in a culture medium to a final concentration of 0.1% DMSO.
The FP duration (FPD) was defined as the duration from the first to the second peak in FP[35]. The FPD was corrected for the beat rate (inter-spike interval (ISI)) with Fridericia’s formula (Eq. 1), which was the primary method of correction in this study:1 (FPDcF=FPD/(ISI/1000)^1/3).

UTS2R A249G = experiment: TGFα-shedding assay on UTS2R SNV mutant A249G; format: cell-based, human; details: cutoff value set to −1, single replicates
[4] = test system: mitochondrial respiratory complex proteins; experiment: Western blot of mitochondrial respiratory complex proteins in UTS2R-transfected HEK293A cells; format: cell-based, human; details: 10 μM remdesivir, 48 h
UTS2R D130N = target: T2, UTS2R D130N (Homo sapiens, UniProt Q9UKP6, D130N); experiment: TGFα-shedding assay on UTS2R mutant D130N; format: cell-based
T2 construct: expressed in transfected cells; host or cells: HEK293A
T2 sequence (Q9UKP6 whole entry D130N): as the sequence (Q9UKP6 whole entry) above, with D130N counted along it

UTS2R M134A = experiment: TGFα-shedding assay on UTS2R mutant M134A; format: cell-based, human; details: cutoff value set to −1, single replicates
UTS2R G68C = experiment: TGFα-shedding assay on UTS2R SNV mutant G68C; format: cell-based, human; details: cutoff value set to −1, single replicates
[5] = target: T3, UTS2R (β-arrestin 2 recruitment) (Homo sapiens, UniProt Q9UKP6); experiment: NanoBiT β-arrestin 2 recruitment assay for UTS2R; format: cell-based; details: β-arrestin 2, Supplementary Fig. 1b
T3 construct: expressed in transfected cells; host or cells: HEK293A
T3 sequence (Q9UKP6 whole entry): as the sequence (Q9UKP6 whole entry) above

[6] = test system: neonatal rat cardiomyocytes (NRCMs); details: for Contraction [a.u.]: 48 h
[7] = cited from earlier work
[8] = test system: ERK1/2 phosphorylation in HEK293 cells overexpressing UTS2R; experiment: Western blot of ERK1/2 phosphorylation in HEK293 cells overexpressing UTS2R; format: cell-based, human; details: application for up to 72 h
UTS2R T304V = experiment: TGFα-shedding assay on UTS2R mutant T304V; format: cell-based, human; details: cutoff value set to −1, single replicates

CCC(CC)COC(=O)[C@H](C)N[P@](=O)(OC[C@H]1O[C@@](C#N)(c2ccc3c(N)ncnn23)[C@H](O)[C@@H]1O)Oc1ccccc1 [remdesivir]
⊿pEC50 compared to WT UTS2R (UTS2R T304A): -1 | APD90 (action potential duration at 90% repolarization) (hiPS-CMs): significantly prolonged | β-arrestin recruitment response [1]: failed to induce a β-arrestin recruitment response | contraction of adult cardiomyocytes [2]: significantly impaired the contraction | prolonged FPD ([3]; 24 h): 1.32 ± 1.38% | prolonged FPD ([3]; 48 h): 5.60 ± 1.60% | prolonged FPD ([3]; 72 h): 15.57 ± 3.49% | FPD delay ([3]; 24 h): −1.71 ± 1.60% | FPD delay ([3]; 48 h): −0.61 ± 0.11% | ⊿pEC50 compared to WT UTS2R (UTS2R A249G): > 0.3 and 0.2782 and 0.2736 and 0.3671 and 0.2913 | steady-state levels of mitochondrial respiratory complex proteins [4]: did not affect | receptor activation of D130N mutant (UTS2R D130N; D130N mutation vs WT, TGFα-shedding): significantly upregulated | ⊿pEC50 compared to WT UTS2R (UTS2R D130N; D130N, cutoff value set to −1, single replicates): 0.5051 and 0.5402 and 0.5471 and 0.5928 and 0.4845 | ⊿pEC50 compared to WT UTS2R (UTS2R M134A): -1 | ⊿pEC50 compared to WT UTS2R (UTS2R G68C): > 0.3 and 0.5256 and 0.7054 and 0.6735 and 0.5172 | β-arrestin recruitment response [5]: failed to induce a β-arrestin recruitment response | Contraction [a.u.] ([6]; Fig.4a, 1 µM remdesivir, pacing, replicates): 0.1429 a.u. and 0.1533 a.u. and 0.1024 a.u. | Contraction [a.u.] ([6]; Fig.4a, urantide (100 nM) + 1 µM remdesivir): 0.2641 a.u. and 0.2651 a.u. and 0.2715 a.u. | Contraction [a.u.] ([6]; Fig.4b, 1 µM remdesivir, pacing, replicates): 0.1019 a.u. and 0.1158 a.u. and 0.1194 a.u. | Contraction [a.u.] ([6]; Fig.4b, PTX (150 ng/mL) + 1 µM remdesivir): 0.3302 a.u. and 0.3344 a.u. and 0.3245 a.u. | Contraction [a.u.] ([6]; Fig.4b, YM-254890 (1 μM) + 1 µM remdesivir): 0.108 a.u. and 0.1376 a.u. and 0.1361 a.u. | contractility of NRCMs ([6]; chronic remdesivir treatment, constant pacing): reduced contractility | patients showing arrhythmias (other than atrial fibrillation, supraventricular tachycardia, ventricular tachycardia, ventricular fibrillation) ([7]; ACTT-1 trial, patients receiving remdesivir): 0.2 % of patients | time to resolution of cardiac adverse effects after discontinuing remdesivir [7]: 24 to 48 h | phosphorylation of ERK1/2 [8]: long-lasting and dose-dependent phosphorylation of ERK1/2 | ⊿pEC50 compared to WT UTS2R (UTS2R T304V): -1

Reference: paper PMC10175918 (Communications Biology, 2023)
